# What was measured:
# Assay in all cases: fluorogenic peptidase assay
# Format in all cases: biochemical
# ecClpP [1] = molecular target: T1, ecClpP (Escherichia coli, UniProt P0A6G7)
# ecClpXP [2] = molecular target: T2, ecClpXP (Escherichia coli, UniProt P0A6G7+P0A6H1); conditions: substrate Suc-LY-AMC; competitive
# bsClpYQ = molecular target: T3, bsClpYQ (Bacillus subtilis, UniProt P39070+P39778); conditions: substrate Cbz-GGL-AMC, ATP present; competitive
# T3 sequence (P39070 2-181): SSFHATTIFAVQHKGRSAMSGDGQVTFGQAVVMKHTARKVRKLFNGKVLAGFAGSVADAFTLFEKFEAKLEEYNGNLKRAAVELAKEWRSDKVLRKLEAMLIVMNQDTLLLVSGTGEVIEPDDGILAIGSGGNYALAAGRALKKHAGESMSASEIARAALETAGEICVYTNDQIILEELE
# T3 sequence (P39778 1-467): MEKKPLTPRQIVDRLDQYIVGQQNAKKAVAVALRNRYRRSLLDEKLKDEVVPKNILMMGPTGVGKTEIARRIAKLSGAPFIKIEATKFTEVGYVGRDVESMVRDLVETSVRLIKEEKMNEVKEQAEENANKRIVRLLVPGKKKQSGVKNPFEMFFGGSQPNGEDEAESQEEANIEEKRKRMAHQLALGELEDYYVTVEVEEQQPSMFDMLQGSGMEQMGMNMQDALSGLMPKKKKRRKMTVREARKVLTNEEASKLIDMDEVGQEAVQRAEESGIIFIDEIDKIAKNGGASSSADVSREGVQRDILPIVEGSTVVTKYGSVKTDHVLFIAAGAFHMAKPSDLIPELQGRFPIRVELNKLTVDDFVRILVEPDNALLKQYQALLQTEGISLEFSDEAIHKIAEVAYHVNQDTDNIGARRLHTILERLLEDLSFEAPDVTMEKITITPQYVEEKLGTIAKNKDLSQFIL
# ecClpXP [3] = molecular target: T2, ecClpXP; conditions: 0.1 mM Suc-LY-AMC; competitive
# ecClpP [4] = molecular target: T1, ecClpP; remark: listed apart in the source
# T2 sequence (P0A6G7 15-207): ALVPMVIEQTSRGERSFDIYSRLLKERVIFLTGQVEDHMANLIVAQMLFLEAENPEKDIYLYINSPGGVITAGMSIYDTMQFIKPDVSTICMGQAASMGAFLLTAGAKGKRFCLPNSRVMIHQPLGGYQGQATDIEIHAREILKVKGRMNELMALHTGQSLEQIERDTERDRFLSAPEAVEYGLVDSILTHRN
# T2 sequence (P0A6H1 2-424): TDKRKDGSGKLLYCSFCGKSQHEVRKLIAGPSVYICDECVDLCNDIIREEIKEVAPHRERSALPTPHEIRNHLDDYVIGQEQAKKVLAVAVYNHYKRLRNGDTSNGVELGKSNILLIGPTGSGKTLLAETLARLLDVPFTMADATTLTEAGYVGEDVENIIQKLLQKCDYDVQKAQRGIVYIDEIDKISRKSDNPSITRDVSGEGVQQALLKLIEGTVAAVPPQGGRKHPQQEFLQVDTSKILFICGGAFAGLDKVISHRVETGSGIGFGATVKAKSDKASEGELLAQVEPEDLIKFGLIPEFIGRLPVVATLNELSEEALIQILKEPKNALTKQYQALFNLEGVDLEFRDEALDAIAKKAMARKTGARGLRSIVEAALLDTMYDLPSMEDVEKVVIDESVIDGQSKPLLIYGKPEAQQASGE
# T1 sequence (P0A6G7 15-207): as the sequence (P0A6G7 15-207) above
smiles,measurement,setting,value
"CCCCCCc1c(O)c(Cl)cc2c1OC1(C2=O)C(Cl)=C(Cl)C(=O)N1C (racemic) [compound 1, 5-chloro-armeniaspirol A]",Ki,ecClpP [1],58.8 µM
same,Ki,ecClpXP [2],36.7 µM
same,Ki,bsClpYQ,3.2 µM
same,IC50,ecClpXP [3],48.6 ± 1 µM
same,IC50,ecClpP [4],61 ± 1 µM

# From article doi:10.1101/685669v2 (biorxiv, 2020)
